“Also recorded” adds a separate entry of the source.
Assays:
[1] = system: ubiquitin proteosome pathway; experiment: Inhibition of the ubiquitin proteosome pathway (preliminary evidence); conditions: stabilizes expression of hypoxy inducible factor 1
From the text: Cystic fibrosis is caused by mutations in a membrane-associated chloride channel, the cystic fibrosis transmembrane regulatory protein (CFTR). The most common mutation, accounting for 70% of alleles, is a 3 base pair (single amino acid) deletion at the 508 position on the first ATP binding domain, the (ΔF508) mutation. This is referred to as a class II mutation in that intact and potentially functional protein is degraded in the endoplasm reticulum because of a small folding error. It is known that his degradation can be bypassed in vitro by hypothermia and by treatment with compounds,such as glycerol and phenylbutyrate. These treatments result in functional expression of (ΔF508) CFTR on the cell surface. It has recently been proposed that CFTR degradation in the endoplasmic reticulum (ER) is mediated by the ubiquitin-proteasome system.

[2] = system: human CFTR protein bearing the ΔF508 mutation; experiment: Western blot of CFTR in CFPAC-1 cells treated with GSNO; assay type: cell-based
Experimental: FIG. 1. […] Human pancreatic adenocarcinoma cells from a patient homozygous for ΔF508 (CFPAC-1) were grown to confluence and treated with medium alone (control) or 500 nM, 1 μM, 5 μM, 10 μM or 100 mM GSNO for 6 hours. The cells were harvested, lysed, resuspended in NP40 buffer and underwent Western Blot analysis with anti-CFTR antibody. […] Increased expression of the immature non-glycosylated protein (140 kDa) reflects decreased degradation of the immature protein in the endoplasma retimulum The appearance of a band at 180 kDa (mature protein) reflects maturation of the protein in the endoplasmic reticulum, an expression of a form capable of being expressed on the cell surface representative of three experiments. The full maturing of the protein accommodates for the ΔF508 mutation.

[3] = cited from earlier work
patients with CF = experiment: Double-blind, placebo-controlled nebulized GSNO study in patients with CF; assay type: in vivo, human
Experimental: FIG. 3. […] In a double-blind, placebo-controlled study, patients with CF received GSNO in 10 mM phosphate buffered saline (PBS) (n=9) or 10 mM PBS alone (n=11) by nebulizer. The two groups were matched with respect to age, vital signs, oxygen saturation, vital capacity, FEV1, and FEF25-75(p=7). Change in oxygen saturation from pretreatment baseline is recorded as a function of time. Results are shown in FIG. 3 where the continuous line represents the GSNO group and the line composed of dashes represents the PBS alone group. […] FIG. 4. Inhaled S-nitrosoglutathione cases increased expired nitric oxide (NO) concentration in CF. Data presented represent the two groups described in FIG. 3, but with respect to expired nitric oxide concentration (measured off-line with chemiluminescence in accordance with American Thoracic Society guidelines). Results are shown in FIG. 4 where the continuous line represents the GSNO group and the line composed of dashes represents the PBS alone group. […] Note that the change at 30 minutes is less pronounced than at 5 minutes, though improvement in oxygenation is as dramatic at 30 minutes as at 5 minutes. […] These S-nitrosylation reactions may be critically important to smooth muscle relaxation, antimicrobial effects and modification of ion channel function. FIGS. 5A, 5B, 5C, 5D, 5E and 5F. Inhaled S-nitrosoglutathione is well tolerated in CF patients.

[4] = system: human airway smooth muscle preparations; conditions: read-out: IC50 in relaxing human airway smooth muscle preparations; cited from earlier work
[5] = cells homozygous to the ΔF508 mutation, 100 μM GSNO

For N[C@@H](CCC(=O)N[C@@H](CSN=O)C(=O)NCC(=O)O)C(=O)O [GSNO, S-nitrosoglutathione], the “inhibition of ubiquitin proteosome pathway” value [1] was “inhibits the ubiquitin proteosome pathway”, the “stabilization and maturation of ΔF508 CFTR protein (Western blot, 140/160/180 kDa bands)” value ([2]; CFPAC-1 cells, 500 nM, 1 μM, 5 μM, 10 μM or 100 mM GSNO for 6 hours) was “stabilizes and allows maturation of human CFTR protein bearing the ΔF508 mutation” and the “expression of CFTR” value [2, 5] was “increases the expression of CFTR”. The “maturation of CFTR” value [2, 5] was “increases the maturation of CFTR”, the “stability at acid pH” value [3] was “stable at acid pH” and the “tolerability (vital signs, lung function, systemic effects)” value (patients with CF; CF patients, inhaled 0.05 ml/kg of 10 mM GSNO) was “no acute change in vital signs or lung function was observed; also recorded: well tolerated in CF and has no adverse systemic affects”. The “change in oxygen saturation from pretreatment baseline” value (patients with CF; inhalation of 0.05 ml/kg of 10 mM GSNO by nebulizer vs PBS alone, p<0.001 by ANOVA) was “greater improvement in oxygen saturation than those in the PBS group; also recorded: improved oxygenation” and the IC50 [4] was about 10 µM.
